# Test results reported in US20250003940A1, “BIOSENSOR, BIOSENSOR COMPONENTS, AND USE THEREOF” (VICTORIA LINK LIMITED, priority 2021, published 2025).
# Where two headings read alike, the source gives them in different places.
# T1: Helicobacter pylori glutamine synthetase (HpGS), SEQ ID NO: 2 (Helicobacter pylori, UniProt P94845)
# T1 construct: BpsA-coupled assay
# T1 sequence (P94845 1-481): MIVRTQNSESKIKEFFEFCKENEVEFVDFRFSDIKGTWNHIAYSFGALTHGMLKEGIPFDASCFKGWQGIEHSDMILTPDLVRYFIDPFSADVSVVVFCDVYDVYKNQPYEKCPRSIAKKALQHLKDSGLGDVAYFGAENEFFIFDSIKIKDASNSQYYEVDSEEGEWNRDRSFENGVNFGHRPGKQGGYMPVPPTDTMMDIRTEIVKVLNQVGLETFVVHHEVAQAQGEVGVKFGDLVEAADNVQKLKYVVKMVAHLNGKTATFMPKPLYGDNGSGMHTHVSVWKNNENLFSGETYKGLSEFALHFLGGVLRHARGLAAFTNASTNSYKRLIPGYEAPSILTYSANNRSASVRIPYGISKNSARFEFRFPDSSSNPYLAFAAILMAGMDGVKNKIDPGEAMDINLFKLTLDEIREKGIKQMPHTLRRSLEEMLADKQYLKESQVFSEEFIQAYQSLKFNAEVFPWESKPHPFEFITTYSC
# B1: Helicobacter pylori glutamine synthetase (HpGS), SEQ ID NO: 2 (Helicobacter pylori 26695) (protein)
# chain: T1 sequence (P94845 1-481)
# notes: BpsA-coupled assay
# B2: Rhodospirillum centenum arginine dihydrolase (RcArgZ), truncated: deletion of residues 2 to 18 of UniProt B6IRA8, SEQ ID NO: 3 (Rhodospirillum centenum SW) (protein)
# chain: APPRIIMCAPDHFEVSYTINPWMRPDEWEARRSELSGAAAAGWSALRRRLQQLGAAVELVAPRSGLPDLVFTANAAVVLDGKALVARFRHPERRPEEPHFRRFFDGLAARGLLDEVHDMPPGVCLEGAGDCVHDAGRGVFFLGHGFRSDREAAAVVADLFGEEVEPLELVDPRFYHMDTALCPLSGGEVLYVPGAFSAEGRGRLRERIGADRLIEVPEADAVRLAANAVNLGRDVVLAEASDDLKAALAERGYSVHEVPIRSFGLSGGSAFCLTLRLDRRSNRRSGRPVGGTGPGAAADAPGQPALLD
# notes: synthetic gene (Twist Bioscience); GDH-coupled assay
# Key:
# [1] = target: T1, Helicobacter pylori glutamine synthetase (HpGS), SEQ ID NO: 2; assay: GS-BpsA coupled assay kinetics of HpGS for glutamate and ammonium (A590, indigoidine); type: biochemical; conditions: 37° C., coupled with BpsA
# Description: (§1) FIG. 6A: Sigmoidal kinetics data obtained when the GS from Helicobacter pylori (HpGS) is assayed in the presence of various concentrations of its substrate, glutamate. The concentration of GS and BpsA is 3 μM and 6 μM respectively. An optimised condition for the GS-BpsA assay was used. A range of glutamate concentrations (0-900 μM) was used in the assay. Rates were measured through the increase in absorbance at 590 nm at 37° C. Data are the mean values of three replicates and error bars indicate the standard error of the mean.
# as §1, with “6B:” for “6A:”, “HpGS” for “the GS from Helicobacter pylori (HpGS)”, “ammonium.” for “glutamate.”, “0-900 μM NH4Cl” for “glutamate concentrations (0-900 μM)”
# (§2) FIG. 21A: Amino acid sequence for Helicobacter pylori glutamine synthetase enzyme. SEQ ID NO: 2. The His-tag sequence used for the protein fusion is also shown.
# (§3) Optimised ATP/pH and Mg^2+ conditions were utilised with varying concentrations of KCl (FIG. 5). A concentration of 10 mM KCl was chosen to be optimal based on this experiment. The final optimised reaction mixture for the GS-BpsA assay was determined to be 100 mM Tris Base pH 11.4, 15 mM ATP, 20 mM MgCl2, and 10 mM KCl.
# (§4) Using optimised assay conditions for the GS-BpsA coupled assay, kinetics data for HpGS were collected for its substrates glutamate and ammonium. For these experiments, the concentrations of GS and BpsA were 3 μM and 6 μM respectively. Optimised conditions for the GS-BpsA assay were used. A range of 0-1000 μM glutamate concentration and 1000 μM NH4Cl was used in the assay. Rates were measured through the increase in absorbance for 5 minutes at 590 nm and 37° C.
# (§5) GS enzymes have been previously found to display non-Michaelis-Menten, sigmoidal kinetics (Murray et al., 2013). As expected, the data were fit better by the Hill equation for cooperative enzymes than by the Michaelis-Menten equation (FIGS. 6A-6B). The Hill coefficient indicates the estimate of the number of active sites that are acting cooperatively, which has a value of approximately 2 for both substrates.
# [2] = GS activity assay coupled with PK/LDH (NADH oxidation, A340); type: biochemical; conditions: 37° C., decrease of absorbance at 340 nm
# Description: (§6) FIG. 3: GS activity assay. The assay was adapted from Shapiro et. al. The reaction mixture included 30 mM imidazole, 100 mM Na-glutamate, 8.5 mM adenosine 5′-triphosphate (ATP), 1 mM phosphoenolpyruvate (PEP), 60 mM magnesium chloride (MgCl2), 20 mM potassium chloride (KCl), 45 mM ammonium chloride (NH4Cl), 0.25 mM (3-nicotinamide adenine dinucleotide (NADH), 28 units pyruvate kinase/40 units L-lactic dehydrogenase (PK/LDH). The reactions were performed at 37° C. and rates were measured by the decrease of absorbance at 340 nm.
# For preliminary experiments, glutamine synthetase from Escherichia coli (E. coli) was successfully expressed, purified and tested for activity. This assay took advantage of the biosynthetic reaction of GS (which produces ADP) coupled with lactate dehydrogenase and pyruvate kinase to oxidise NADH (Shapiro & Stadtman, 1970).
# as §6, with “The” for “FIG. 3: GS activity assay. The assay was adapted from Shapiro et. al. The”, “0-nicotinamide” for “(3-nicotinamide”
# The soluble GS enzymes were tested. […]
# [3] = Activity assay of purified arginine deiminase; type: biochemical
# Description: We attempted to express and purify the three ADI enzymes in E. coli. After numerous attempts, we were unable to express the M. hominis or P. putida enzymes in a soluble form. Each protein was expressed solely in inclusion bodies, under all conditions tested (FIG. 14A). Purification from inclusion bodies and refolding were also attempted, without success. In contrast, we were able to express and purify the P. aeruginosa ADI enzyme (average yield=40 mg per litre of bacterial culture).
# [4] = substrate: N[C@@H](CCC(=O)O)C(=O)O; assay: GS-BpsA coupled assay kinetics of HpGS for glutamate and ammonium (A590, indigoidine); type: biochemical, Helicobacter pylori; conditions: coupled with BpsA, pH 11.4; for K0.5: Hill equation
# Description: as §1
# as §1, with “6B:” for “6A:”, “HpGS” for “the GS from Helicobacter pylori (HpGS)”, “ammonium.” for “glutamate.”, “0-900 μM NH4Cl” for “glutamate concentrations (0-900 μM)”
# as §2, §3, §4, §5
# [5] = substrate: N=C(N)NCCC[C@H](N)C(=O)O; assay: Michaelis-Menten kinetics of RcArgZ with arginine (glutamate dehydrogenase coupled assay, A340); type: biochemical, Rhodospirillum centenum; conditions: other: 37° C., 0-3000 μM arginine, decrease in absorbance at 340 nm
# Description: FIG. 17: Michaelis-Menten kinetics of RcArgZ with arginine. A range of 0-3000 μM arginine concentration was used in the assay. Rates were measured through the decrease in absorbance at 340 nm at 37° C. Data are the mean values of three replicates and error bars indicate the standard error of the mean.
# FIG. 22A: Amino acid sequence for Rhodospirillum centenum arginine dihydrolase enzyme. SEQ ID NO: 3. This sequence is derived from the sequence listed as accession number B6IRA8 in the UniProt database, but with the deletion of amino acid residues 2 to 18 from the UniProt sequence. These residues were deleted because they were predicted to encode a disordered region in the polypeptide. The His-tag sequence used for the protein fusion is also shown.
# For this reason, we ordered the gene for this isolated domain from a commercial gene synthesis company (Twist Bioscience). […]
# RcArgZ activity was quantified in vitro by coupling it with glutamate dehydrogenase (GDH) in a spectrophotometric assay. […]
# Therefore, a decrease in absorbance at 340 nm is directly relative to glutamate production, and because GDH is in excess in the reaction, it is directly relative to RcArgZ activity to produce ammonium from arginine.
# Activity data for RcArgZ were collected across a range of arginine concentrations. […] Rates were measured through the decrease in absorbance at 340 nm at 37° C.
# [6] = other: Biological Replicate 1, 37° C.
# [7] = other: Biological Replicate 2, 37° C.
molecule,measurement,setting,value
"N [Ammonium, ammonium]",kcat (estimated from Vmax),[1],0.8 ± 0.03 s⁻¹
same,Hill coefficient,[1]; Hill equation,2.0
same,Km,[1]; read-out: Khalf (concentration of the substrate at the half-maximal velocity),~100 µM
same,kcat (ammonium varied),[1]; Biological Replicate 1,0.78 s⁻¹
same,Km,"[1]; Biological Replicate 1, Hill equation, read-out: Khalf (ammonium)",96 µM
same,kcat (ammonium varied),[1]; Biological Replicate 2,0.78 s⁻¹
same,Km,"[1]; Biological Replicate 2, Hill equation, read-out: Khalf (ammonium)",97 µM
"EcGS: glutamine synthetase from Escherichia coli, SEQ ID NO: 14",GS activity (ATP hydrolysis) in PK/LDH assay,[2],only slightly active
P. aeruginosa ADI: Pseudomonas aeruginosa arginine deiminase enzyme expressed and purified from E. coli,activity of purified arginine deiminase,[3],did not have any activity
B1,K0.5,[4]; [6],350 µM
same,kcat,[4]; [6],0.28 s⁻¹
same,K0.5,[4]; [7],350 µM
same,kcat,[4]; [7],0.45 s⁻¹
B2,Km,[5],360 ± 30 µM
same,kcat,[5],10.4 s⁻¹
